Measured values as given in patent US4463007A, “Triazoloquinazolinones, and compositions and methods for treating allergic disorders with them” (BASF Aktiengesellschaft, priority 1981, dated 1984).

Tested on: PCA in rats
Test: Passive cutaneous anaphylaxis (PCA) in rats, anti-allergic action, oral administration
Type: in vivo, rat
Details: for ED50: Rattus norvegicus, dose which reduces diameter of color patch by 50% relative to non-medicated controls, read-out: Inhibition of PCA in rats, ED 50%; for ED50 / R.A. (relative activity) / times more active than the comparative compound Pirquinozol: oral; for R.A. (relative activity): Pirquinozol = 1.00
Method: The anti-allergic action was tested on rats, using the passive cutaneous anaphylaxis (PCA) model.
Narcotized male rats (100 to 140 g) are sensitized by intradermal injection (into the shaved dorsal skin) of 0.1 ml of an ovalbumin antiserum. After a sensitization period of about 48 hours, the treatment (intraperitoneal or oral administration) is carried out with various dosages (10 animals/dose)of the test substances. 15-20 minutes after treatment, an antigen/Evans blue mixture (10 mg/kg of ovalbumin in 2% strength Evans blue solution) is injected intravenously into the test animals. 30 minutes later, the animals are sacrificed, the dorsal skin is removed and the diameter of the circular blue coloration is measured on the inner surface. The size of the color patches of untreated control animals can be standardized. Anti-allergic substances reduce the diameter of the color patch by an amount dependent on the dose. The ED 50% is quoted as the dose which reduces the diameter of the color patch by 50% relative to that of non-medicated control animals. In addition to the anti-allergic action, the acute toxicity was determined for intraperitoneal administration, using groups of 2 NMRI mice, each weighing 20-26 g, and for oral administration, using groups of 2 Sprague-Dawley rats, each weighing 120-150 g. The LD 50 was determined on groups of 10 NMRI mice, each weighing 20-26 g, after intraperitoneal administration. The post-observation period was 14 days.

Compound | ED50 | activity in oral doses (in words) (oral doses of up to 100 mg/kg, PCA rats) | R.A. (relative activity) (PCA rats) | times more active than the comparative compound Pirquinozol (PCA rats)
O=C(O)c1cc(=O)c2c(OCC(O)COc3cccc4oc(C(=O)O)cc(=O)c34)cccc2o1 [Cromolyne, reference compound] | > 100 mg/kg | inactive |  | 
CCOC(=O)c1nc2c3ccccc3n(C)c(=O)n2n1 [Example 13, Ethyl 6-methyl-1,2,4-triazolo[1,5-c]quinazolin-5-one-2-carboxylate] | 0.518 mg/kg |  | 2.29 | 
CCOC(=O)c1nc2c3ccccc3n(CC)c(=O)n2n1 [Example 14, Ethyl 6-ethyl-1,2,4-triazolo[1,5-c]quinazolin-5-one-2-carboxylate] | 0.707 mg/kg |  | 1.68 | 
CCOC(=O)c1nc2c3cc(C)ccc3n(CC)c(=O)n2n1 [Example 17, Ethyl 6-ethyl-9-methyl-1,2,4-triazolo[1,5-c]quinazolin-5-one-2-carboxylate] | 0.271 mg/kg |  | 4.39 | 4.4 times
CCOC(=O)c1nc2c3cc(Cl)ccc3n(C)c(=O)n2n1 [Example 20, Ethyl 9-chloro-6-methyl-1,2,4-triazolo[1,5-c]quinazolin-5-one-2-carboxylate] | 0.723 mg/kg |  | 1.64 | 
CCOC(=O)c1nc2c3cc(C)ccc3n(C)c(=O)n2n1 [Example 25, Ethyl 6,9-dimethyl-1,2,4-triazolo[1,5-c]quinazolin-5-one-2-carboxylate] | 0.617 mg/kg |  | 1.92 | 
CCOC(=O)c1nc2c3cc(C)c(C)cc3n(C)c(=O)n2n1 [Example 27, Ethyl 6,8,9-trimethyl-1,2,4-triazolo[1,5-c]quinazolin-5-one-2-carboxylate] | 1 mg/kg |  | 1.19 | 1.2 times
CCOC(=O)c1nc2c3cc(C)c(C)cc3n(CC)c(=O)n2n1 [Example 28, Ethyl 8,9-dimethyl-6-ethyl-1,2,4-triazolo[1,5-c]quinazolin-5-one-2-carboxylate] | 0.876 mg/kg |  | 1.36 | 
O=c1[nH]c2ccccc2c2cc(CO)nn12 [Pirquinozol, reference compound] | 1.19 mg/kg |  | 1.00 | 
